Among the data in patent US20180280393A1, “METHODS AND COMPOSITIONS FOR TREATMENT OF METASTATIC AND REFRACTORY CANCERS AND TUMORS” (The Wistar Institute of Anatomy and Biology, priority 2015, published 2018) are EC50 values, retold here.

pEC50: −log10 of the molar value. Like-named read-outs stand apart in the source and are kept apart here.

The subject of one test is human T cells. Description: ConA-induced activation and expansion of human T cells (high-throughput screen). Type of test: cell-based. The settings on record: human T cells activated with ConA for 7 days, N/A = ambiguous curve fits or EC50 greater than the highest concentration tested (25 μM). The procedure:
T cell stimulation—For human T cell proliferation assays, peripheral blood lymphocytes were obtained by leukapheresis/elutriation and Miltenyi bead-purified and K562 cells expressing human CD32 were generated as previously described^41. […] PBMCs were labeled with CELLTRACE Violet stain (Invitrogen) according to the manufacturer's instructions and cocultured with loaded K32 cells at a 10:1 T cells:K32 ratio or activated with ConA (2 μg/ml, Sigma). Proliferation of stimulated T cells was determined 7 days later by FACS and Division Index was calculated using FlowJo software.
(§1) EC50 values were calculated from normalized percent inhibition data using non-linear curve fitting in PRISM software.

For test [1], the system named is A2780 ovarian cancer cells. Nature of the test: Molecular screening of compounds on A2780 cell proliferation (resazurin fluorescence). It counts as cell-based, human. The note with it: A2780 cells cultured 3 days, N/A = ambiguous curve fits or EC50 greater than the highest concentration tested (25 μM), read-out: EC5 - A2780 ovarian cancer cells. The procedure: Cell proliferation assays—Cells were plated in 96-well plates. Compounds were added the next morning, and cell proliferation was measured 48 hrs later with the […] 96 MTS assay (Promega) according to the manufacturer's instructions. Molecular screening of compounds on A2780 cells was performed by adding compounds the morning after plating in 384-well plates and measuring proliferation 72 hrs later with resazurin fluorescence. Normalized percent inhibition (NPI) was calculated with respect to fluorescence values obtained with DMSO negative control and doxorubicin (5 μM) positive control as NPI=100%*(DMSO−compound)/(DMSO−doxorubicin). TCR ligation of human CD8 T cells
as §1
A general note: The colour change of resazurin is a common sign of viable cells or microbes.

`CCN(CCCOc1ccc2c(Nc3cc(CC(=O)Nc4cccc(F)c4)n[nH]3)ncnc2c1)CCOP(=O)(O)O` [AZD1152] showed a pEC50 in the test with human T cells (T-cell, 168 h) of 7.04.
Turning to `Cn1cnc2c(F)c(Nc3ccc(Br)cc3Cl)c(C(=O)NOCCO)cc21` [AZD6244 (selumetinib), selumetinib], the pEC50 in the test with human T cells (T-cell, 168 h) was 4.61.
On to `CN(C)C(=O)c1cc2cnc(Nc3ccc(N4CCNCC4)cn3)nc2n1C1CCCC1` [LEE011], for which, in the test on human T cells (T-cell, 168 h), the pEC50 was 5.53.
With `COc1ncc(-c2ccc3nccc(-c4ccnnc4)c3c2)cc1NS(=O)(=O)c1ccc(F)cc1F` [GSK2126458], the values for the pEC50 (in the test with human T cells; in test [1]) were 9.63 and 6.81, respectively.
For `Cc1cc(-c2ncc(CC(=O)Nc3ccc(-c4cnccn4)cn3)cc2C)ccn1` [LGK974], the pEC50 is 5.04 in the test with human T cells (T-cell, 168 h) and 4.61 in test [1] (Homo sapiens, 72 h).
On to `Cn1ncc(Cl)c1-c1cc(C(=O)N[C@H](CN)Cc2ccc(F)c(F)c2)oc1Cl` [GSK2141795], for which the pEC50 was 7.02 in the test on human T cells and 5.63 in test [1].
`C=CCN(/C=C1/C(=O)O[C@H](COC)[C@@]2(C)C1=C(O)C(=O)C1=C2[C@H](OC(C)=O)C[C@]2(C)C(=O)CC[C@@H]12)CC=C` [PX-866]: the pEC50 with human T cells is 5.92.
Take `CC(=O)c1c(C)c2cnc(Nc3ccc(N4CCNCC4)cn3)nc2n(C2CCCC2)c1=O` [PD0332991]: the pEC50 in test [1] (Homo sapiens, 72 h) was 5.28.
In the case of `CC(C)(C)c1cc(C=C(C#N)C#N)cc(Br)c1O` [AG1024], the pEC50 is 5.01 with human T cells and 4.67 in test [1].
For the molecule `NC1(c2ccc(-c3nc4ccn5c(=O)[nH]nc5c4cc3-c3ccccc3)cc2)CCC1` [MK2206], the pEC50 is 6.35 in the test on human T cells (T-cell, 168 h) and 5.06 in test [1] (Homo sapiens, 72 h).
For `Cc1cc([C@@H](C)Nc2ccccc2C(=O)O)c2nc(N3CCOCC3)cc(=O)n2c1` [AZD6482], the pEC50 with human T cells (T-cell, 168 h) was 6.02.
Regarding `CC(C)n1nc(-c2ccc3oc(N)nc3c2)c2c(N)ncnc21` [INK128], the pEC50 with human T cells (T-cell, 168 h) was 7.74; in test [1] (Homo sapiens, 72 h), 6.59.
In turn, `CCCS(=O)(=O)Nc1ccc(F)c(C(=O)c2c[nH]c3ncc(-c4ccc(Cl)cc4)cc23)c1F` [PLX4032 (vemurafenib), vemurafenib] gave a pEC50 in the test on human T cells (T-cell, 168 h) of 5.28.
As to `CCc1cc(Nc2nccc(-c3c(-c4ccc(OC)c(C(=O)Nc5c(F)cccc5F)c4)nc4ccccn34)n2)c(OC)cc1N1CCC(N2CCN(S(C)(=O)=O)CC2)CC1` [GSK1904529], in the test on human T cells, the pEC50 was 4.86.
`CN1CCN(CCOc2cc(OC3CCOCC3)c3c(Nc4c(Cl)ccc5c4OCO5)ncnc3c2)CC1` [AZD0530 (saracatinib), saracatinib] showed a pEC50 in the test with human T cells (T-cell, 168 h) of 6.37.
For `O=C(Nc1cccc(Cl)c1)Nc1ncc(CCNc2ncnc3ccsc23)s1` [SNS314], the pEC50 in the test with human T cells (T-cell, 168 h) is 7.14; in test [1] (Homo sapiens, 72 h) it was 5.23.
The corresponding values for `O=C(Nc1ccc2[nH]nc(-c3ccncc3)c2c1)[C@@H]1CCN(CC(=O)N2CCN(c3ccc(-c4ncccn4)cc3)CC2)C1` [SCH772984] are 7.65 and 5.12.
On to `CC(C)(C)c1nc(-c2cccc(NS(=O)(=O)c3c(F)cccc3F)c2F)c(-c2ccnc(N)n2)s1` [GSK436 (dabrafenib), dabrafenib], for which the pEC50 with human T cells (T-cell, 168 h) is 5.89; in test [1] (Homo sapiens, 72 h) it was 4.94.
For the molecule `COC1=CC(c2cc3ccccc3[nH]2)=N/C1=C\c1[nH]c(C)cc1C` [obatoclax], the pEC50 with human T cells (T-cell, 168 h) was 7.25; in test [1] (Homo sapiens, 72 h) it was 5.95.
`COc1cc(Nc2ncc3c(n2)-c2ccc(Cl)cc2C(c2c(F)cccc2OC)=NC3)ccc1C(=O)O` [MLN8237] gave a pEC50 with human T cells (T-cell, 168 h) of 7.06.
In the case of `Cc1[nH]c2ccccc2c1CCNCc1ccc(/C=C/C(=O)NO)cc1` [LBH589], in test [1] (Homo sapiens, 72 h), the pEC50 is 5.44.
In turn, `CO[C@H]1C[C@@H]2CC[C@@H](C)[C@@](O)(O2)C(=O)C(=O)N2CCCC[C@H]2C(=O)O[C@H]([C@H](C)C[C@@H]2CC[C@@H](O)[C@H](OC)C2)CC(=O)[C@H](C)/C=C(\C)[C@@H](O)[C@@H](OC)C(=O)[C@H](C)C[C@H](C)/C=C/C=C/C=C/1C` [Rapamycin] gave a pEC50 with human T cells (T-cell, 168 h) of 8.39.
For `CS(=O)(=O)N1CCN(Cc2cc3nc(-c4cccc5[nH]ncc45)nc(N4CCOCC4)c3s2)CC1` [GDC0941], the pEC50 in test [1] (Homo sapiens, 72 h) is 5.81.
